Assay results from ChEMBL document CHEMBL5380837, “Structure-Activity Relationships of Truncated 1'-Homologated Carbaadenosine Derivatives as New PPARγ/δ Ligands: A Study on Sugar Puckering Affecting Binding to PPARs” (J Med Chem, 2023).
pEC50, pKi: −log10 of the molar value.

What was measured:
[1] = target: T1, Peroxisome proliferator-activated receptor alpha (Homo sapiens) (UniProt Q07869); assay: Binding affinity to PPARalpha (unknown origin) at 30 uM by TR-FRET based LanthaScreen competitive binding assay relative to control
T1 sequence (whole entry): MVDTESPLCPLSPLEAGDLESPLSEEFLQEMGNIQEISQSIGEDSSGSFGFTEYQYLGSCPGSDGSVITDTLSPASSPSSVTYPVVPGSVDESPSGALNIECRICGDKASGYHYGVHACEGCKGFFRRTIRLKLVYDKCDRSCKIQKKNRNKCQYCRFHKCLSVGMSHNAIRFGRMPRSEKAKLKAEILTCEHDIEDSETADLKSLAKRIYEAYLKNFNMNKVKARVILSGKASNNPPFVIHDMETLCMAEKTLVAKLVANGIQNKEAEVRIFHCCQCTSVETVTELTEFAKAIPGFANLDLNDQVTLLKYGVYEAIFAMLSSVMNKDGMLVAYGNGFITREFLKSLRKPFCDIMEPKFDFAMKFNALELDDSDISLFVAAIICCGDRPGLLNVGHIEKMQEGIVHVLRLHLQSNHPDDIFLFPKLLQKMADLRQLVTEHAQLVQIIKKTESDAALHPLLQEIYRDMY

[2] = target: T2, Peroxisome proliferator-activated receptor delta (Homo sapiens) (UniProt Q03181); assay: Binding affinity to PPARdelta (unknown origin) at 30 uM by TR-FRET based LanthaScreen competitive binding assay relative to control
T2 sequence (whole entry): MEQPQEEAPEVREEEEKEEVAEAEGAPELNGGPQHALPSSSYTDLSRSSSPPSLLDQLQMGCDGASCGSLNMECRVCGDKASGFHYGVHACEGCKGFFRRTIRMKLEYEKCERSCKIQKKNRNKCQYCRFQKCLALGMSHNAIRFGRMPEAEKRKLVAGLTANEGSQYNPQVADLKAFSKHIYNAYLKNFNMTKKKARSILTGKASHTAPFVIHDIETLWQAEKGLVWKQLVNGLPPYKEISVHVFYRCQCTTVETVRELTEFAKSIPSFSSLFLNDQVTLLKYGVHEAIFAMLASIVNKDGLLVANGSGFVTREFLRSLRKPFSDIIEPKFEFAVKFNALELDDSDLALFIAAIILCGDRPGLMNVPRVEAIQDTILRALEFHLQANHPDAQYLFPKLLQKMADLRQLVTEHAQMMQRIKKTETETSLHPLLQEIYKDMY

[3] = target: T3, Peroxisome proliferator-activated receptor gamma (Homo sapiens, UniProt P37231); assay: Binding affinity to PPARgamma (unknown origin) assessed as inhibition constant by TR-FRET based LanthaScreen competitive binding assay
T3 sequence (P37231 whole entry): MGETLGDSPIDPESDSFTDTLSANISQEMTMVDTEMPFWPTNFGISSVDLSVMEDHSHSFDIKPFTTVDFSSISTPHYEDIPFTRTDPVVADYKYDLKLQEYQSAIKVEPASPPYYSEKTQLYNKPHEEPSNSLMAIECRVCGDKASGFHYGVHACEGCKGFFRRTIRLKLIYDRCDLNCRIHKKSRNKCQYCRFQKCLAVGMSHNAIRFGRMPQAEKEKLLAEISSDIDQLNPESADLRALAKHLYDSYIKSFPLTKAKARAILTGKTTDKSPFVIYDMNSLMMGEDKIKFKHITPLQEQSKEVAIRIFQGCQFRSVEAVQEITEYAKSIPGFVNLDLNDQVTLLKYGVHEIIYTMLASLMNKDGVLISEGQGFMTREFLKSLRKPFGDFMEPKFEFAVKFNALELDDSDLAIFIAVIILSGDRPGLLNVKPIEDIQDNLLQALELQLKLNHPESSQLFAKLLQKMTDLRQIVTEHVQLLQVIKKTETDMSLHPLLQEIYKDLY

[4] = target: T4, Peroxisome proliferator-activated receptor delta (Homo sapiens, UniProt Q03181); assay: Binding affinity to PPARdelta (unknown origin) assessed as inhibition constant by TR-FRET based LanthaScreen competitive binding assay
T4 sequence (Q03181 whole entry): T2 sequence (whole entry)

[5] = target: T4, Peroxisome proliferator-activated receptor delta; assay: Antagonist activity at PPARdelta LBD (unknown origin) assessed as increase in fluorescein labeled SMRT-ID2 corepressor peptide requirement by TR-FRET assay

O[C@H]1[C@H](Cn2cnc3c(NCc4cccc(I)c4)ncnc32)CC[C@H]1O
Activity [1]: 5.3% | Activity [2]: 39.4%

O[C@@H]1[C@H](O)[C@@H]2C[C@@H]2[C@H]1Cn1cnc2c(NCc3cccc(Cl)c3)ncnc21
Activity [1]: 6% | Activity [2]: 13.4%

O[C@@H]1C[C@@H]2C[C@]2(Cn2cnc3c(NCc4cccc(F)c4)nc(Cl)nc32)[C@@H]1O
Activity [1]: 1.7% | Activity [2]: 11.9%

O[C@H]1[C@H](Cn2cnc3c(NCc4cccc(F)c4)nc(Cl)nc32)CC[C@H]1O
Activity [1]: 6.5% | Activity [2]: 37%

O[C@@H]1[C@H](O)[C@@H]2C[C@@H]2[C@H]1Cn1cnc2c(NCc3cccc(Br)c3)ncnc21
Activity [1]: 8.3% | Activity [2]: 20%

O[C@@H]1[C@H](O)C=C[C@H]1Cn1cnc2c(NCc3cccc(F)c3)nc(Cl)nc21
Activity [1]: 7% | Activity [2]: 28.4%

O[C@@H]1[C@H](O)[C@@H]2C[C@@H]2[C@H]1Cn1cnc2c(NCc3cccc(F)c3)ncnc21
Activity [1]: 7.1% | Activity [2]: 0.8%

O[C@@H]1[C@H](O)CO[C@H]1Cn1cnc2c(NCc3cccc(Br)c3)nc(Cl)nc21
Activity [1]: 0.3% | pKi [3]: 5.44 | pKi [4]: 6.43 | pEC50 [5]: 4.58

COC(=O)c1sccc1S(=O)(=O)Nc1ccc(Nc2ccccc2)cc1OC
Activity [1]: 6.4%

O[C@@H]1[C@H](O)C=C[C@H]1Cn1cnc2c(NCc3cccc(I)c3)ncnc21
Activity [1]: 4.1% | Activity [2]: 7.3%

O[C@@H]1[C@H](O)C=C[C@H]1Cn1cnc2c(NCc3cccc(Cl)c3)nc(Cl)nc21
Activity [1]: 4% | pKi [4]: 5.60

O[C@@H]1[C@H](O)C=C[C@H]1Cn1cnc2c(NCc3cccc(Cl)c3)ncnc21
Activity [1]: 0.8% | Activity [2]: 5.9%

COc1cccc(CNc2nc(Cl)nc3c2ncn3C[C@H]2[C@H](O)[C@H](O)[C@@H]3C[C@H]23)c1
Activity [1]: 9.2% | pKi [4]: 6.53

O[C@H]1[C@H](Cn2cnc3c(NCc4cccc(Cl)c4)nc(Cl)nc32)CC[C@H]1O
Activity [1]: 5.1% | pKi [4]: 5.79

O[C@@H]1[C@H](O)C=C[C@H]1Cn1cnc2c(NCc3cccc(F)c3)ncnc21
Activity [1]: 5.2% | Activity [2]: 2.4%

O[C@@H]1[C@H](O)[C@@H]2C[C@@H]2[C@H]1Cn1cnc2c(NCc3ccccc3I)nc(Cl)nc21
Activity [1]: 3.8% | pKi [3]: 5.64 | Activity [2]: 34.6%

O[C@@H]1[C@H](O)[C@@H]2C[C@@H]2[C@H]1Cn1cnc2c(NCc3cccc(F)c3)nc(Cl)nc21
Activity [1]: 3.6% | Activity ([2]; filed as antagonist): 46.3%

O[C@@H]1C[C@@H]2C[C@]2(Cn2cnc3c(NCc4cccc(F)c4)ncnc32)[C@@H]1O
Activity [1]: 2.7% | Activity [2]: 7.4%

O[C@@H]1[C@H](O)[C@@H]2C[C@@H]2[C@H]1Cn1cnc2c(NCc3cccc(Cl)c3)nc(Cl)nc21
Activity [1]: 3.8% | pKi [4]: 6.01

Cc1cc(SCc2sc(-c3ccc(C(F)(F)F)cc3)nc2C)ccc1OCC(=O)O
Activity [1]: 34.9%

O[C@@H]1[C@H](O)[C@@H]2C[C@@H]2[C@H]1Cn1cnc2c(NCc3ccc(I)cc3)nc(Cl)nc21
Activity [1]: 2.7% | pKi [4]: 5.94

O[C@@H]1C[C@@H]2C[C@]2(Cn2cnc3c(NCc4cccc(I)c4)ncnc32)[C@@H]1O
Activity [1]: 9.4% | Activity [2]: 8.6%

O[C@H]1[C@H](Cn2cnc3c(NCc4cccc(F)c4)ncnc32)CC[C@H]1O
Activity [1]: 63% | Activity [2]: 4.8%

O[C@@H]1C[C@@H]2C[C@]2(Cn2cnc3c(NCc4cccc(Br)c4)ncnc32)[C@@H]1O
Activity [1]: 5.6% | Activity [2]: 9.2%

O[C@@H]1[C@H](O)C=C[C@H]1Cn1cnc2c(NCc3cccc(Br)c3)ncnc21
Activity [1]: 0.7% | Activity [2]: 4.2%

O[C@@H]1[C@H](O)[C@@H]2C[C@@H]2[C@H]1Cn1cnc2c(NCc3cccc(I)c3)ncnc21
Activity [1]: 4.6% | Activity ([2]; filed as antagonist): 45.8%

O[C@H]1[C@H](Cn2cnc3c(NCc4cccc(Cl)c4)ncnc32)CC[C@H]1O
Activity [1]: 4% | Activity [2]: 2%

O[C@H]1[C@H](Cn2cnc3c(NCc4cccc(Br)c4)ncnc32)CC[C@H]1O
Activity [1]: 6.6% | Activity [2]: 12.9%

O[C@@H]1C[C@@H]2C[C@]2(Cn2cnc3c(NCc4cccc(Cl)c4)ncnc32)[C@@H]1O
Activity [1]: 6.9% | Activity [2]: 2%
